In patent publication US10934303B2, “Aryl ethene derivative and pharmaceutical composition containing same as active ingredient” (priority 2016, dated 2021):
Where two headings read alike, the source gives them in different places.

How the values were obtained:
[1] = system: ERRγ; format: cell-based
Procedure: AD293 was cultured in a 24-well plate for 24 hours, using a DMEM High glucose culture medium (Hyclone, USA) to which 0.5% FBS was added at a concentration of 9×10^4/well. The culture medium was replaced with a DMEM High glucose culture medium to which 10% FBS was added, treatment was performed with a mixture of a TransIT-LT1 transfection reagent (Mirus, USA) and pCMX-Gal4-ERRγ, pFR-luciferase reporter plasmid, pCMV-β-gal, and culturing was performed for 24 hours. Thereafter, a luciferase activity assay and a β-gal assay were performed, respectively, with a lysate obtained after treatment with the arylethene derivative of the present invention for 24 hours. All results were derived from three or more independent repetitive experiments.

[2] = biological target: GST-bound ER alpha ligand-binding domain (LBD) (Homo sapiens (Human), UniProt P03372); assay: biochemical; settings: TR-FRET, beta-estradiol 4 nM as agonist; read-out: Binding Assay, IC50 ERα
Chain of GST-bound ER alpha ligand-binding domain (LBD) (P03372 whole entry, looked up, the tested form may be a part): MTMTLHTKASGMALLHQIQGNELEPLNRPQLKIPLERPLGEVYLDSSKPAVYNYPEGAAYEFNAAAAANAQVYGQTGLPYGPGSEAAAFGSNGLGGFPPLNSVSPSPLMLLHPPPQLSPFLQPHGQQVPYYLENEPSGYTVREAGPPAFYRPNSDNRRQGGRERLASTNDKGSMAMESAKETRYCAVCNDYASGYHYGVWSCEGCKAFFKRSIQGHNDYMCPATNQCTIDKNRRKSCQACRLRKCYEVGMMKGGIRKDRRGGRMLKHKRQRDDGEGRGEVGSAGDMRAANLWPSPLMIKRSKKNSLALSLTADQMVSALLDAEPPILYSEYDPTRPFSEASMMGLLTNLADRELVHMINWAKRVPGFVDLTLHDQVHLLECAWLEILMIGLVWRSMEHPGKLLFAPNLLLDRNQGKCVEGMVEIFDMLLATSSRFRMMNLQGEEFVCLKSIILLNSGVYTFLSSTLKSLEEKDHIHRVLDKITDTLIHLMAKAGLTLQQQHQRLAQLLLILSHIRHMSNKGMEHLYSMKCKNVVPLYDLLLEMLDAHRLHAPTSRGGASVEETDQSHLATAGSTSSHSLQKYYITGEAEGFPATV
Procedure: (§3) The arylethene derivative of the present invention was sequentially added to a 384 well plate from a concentration of 10 μM to a final concentration of two-fold dilution. […] After all reagents were added, a reaction was carried out with gentle shaking at 20° C. for 1 hour, and after the reaction, a binding activity was measured by a TR-FRET method.

[3] = biological target: GST-bound ERR gamma ligand-binding domain (LBD) (Homo sapiens (Human), UniProt P62508); assay: ERRγ binding assay (inverse agonist assay), TR-FRET; settings: TR-FRET, PGC1a coactivator; read-out: Binding Assay, IC50 ERRγ
Chain of GST-bound ERR gamma ligand-binding domain (LBD) (P62508 233-457): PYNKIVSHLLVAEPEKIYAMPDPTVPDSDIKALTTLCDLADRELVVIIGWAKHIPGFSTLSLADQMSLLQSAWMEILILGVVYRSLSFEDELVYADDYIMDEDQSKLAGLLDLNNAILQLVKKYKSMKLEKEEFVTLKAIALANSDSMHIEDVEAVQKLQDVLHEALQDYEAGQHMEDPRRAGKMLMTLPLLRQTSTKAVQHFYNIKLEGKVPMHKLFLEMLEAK
Procedure: 1) ERRγ Binding Assay (Inverse Agonist Assay)
as §3

[4] = biological target: GST-bound ERR alpha LBD (Homo sapiens (Human), UniProt P11474); settings: TR-FRET, PGC1a coactivator; read-out: Binding Assay, IC50 ERRα
Chain of GST-bound ERR alpha LBD (P11474 193-421): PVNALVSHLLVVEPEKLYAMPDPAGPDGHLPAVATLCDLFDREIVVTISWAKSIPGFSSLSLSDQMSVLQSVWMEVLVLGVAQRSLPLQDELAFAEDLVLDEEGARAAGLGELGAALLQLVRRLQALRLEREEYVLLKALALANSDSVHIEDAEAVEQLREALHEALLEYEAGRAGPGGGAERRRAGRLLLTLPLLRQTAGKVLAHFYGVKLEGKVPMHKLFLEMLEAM
Procedure: as §3

[5] = biological target: T1, hERG channel (Homo sapiens (Human), UniProt Q12809); assay: biochemical
[6] = in vitro; format: in vitro ADME; parameters: Papp at 5 h: dose or concentration left out as unconfirmed; settings: PBS pH 7.4, 25° C.; for Papp at 5 h: PAMPA, read-out: Permeability Pampa
[7] = biological target: CYP2D6 (Homo sapiens (Human), UniProt P10635); assay: Cytochrome P450 activity inhibition, CYP2D6; format: in vitro ADME; settings: 10 μM, human liver microsomes, Dextromethorphan substrate
Chain of CYP2D6 (P10635 whole entry): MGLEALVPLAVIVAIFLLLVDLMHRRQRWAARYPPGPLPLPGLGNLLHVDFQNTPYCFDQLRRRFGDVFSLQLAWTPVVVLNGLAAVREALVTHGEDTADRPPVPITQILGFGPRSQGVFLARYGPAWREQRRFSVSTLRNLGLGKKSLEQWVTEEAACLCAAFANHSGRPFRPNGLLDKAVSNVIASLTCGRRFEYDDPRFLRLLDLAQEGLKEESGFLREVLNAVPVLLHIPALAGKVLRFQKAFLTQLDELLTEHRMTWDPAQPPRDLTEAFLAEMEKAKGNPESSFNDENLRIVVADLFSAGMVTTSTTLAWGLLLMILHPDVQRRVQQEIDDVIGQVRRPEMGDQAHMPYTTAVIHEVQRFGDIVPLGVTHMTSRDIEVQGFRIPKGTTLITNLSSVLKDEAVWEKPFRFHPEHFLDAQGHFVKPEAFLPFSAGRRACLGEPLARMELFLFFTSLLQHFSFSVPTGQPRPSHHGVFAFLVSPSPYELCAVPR
Excerpt: (§1) 1) Cytochrome P450 (CYP450) Activity Inhibition Evaluation

[8] = biological target: T1, hERG channel; settings: read-out: hERG IC50; fluorescence polarization assay
[9] = system: CAL62 cells; assay: Clonogenic assay with 131I; format: cell-based; settings: CAL62 cells, single agent
Procedure: The cells were plated in a 6-well plate, and allowed to stand for 24 hours. […] The cells were washed with cold bHBSS, and allowed to stand in a normalized culture medium for a time corresponding to six doublings. Finally, the cells were fixed in a 4% paraformaldehyde (PFA) solution and stained with 0.05% crystal violet.

[10] = in vivo; format: in vivo; settings: rat
Procedure: An oral administration group fasts the day before.
Blood of each animal is collected at 0 hour.
Into a tail vein of an intravenous administration group (IV), a drug is injected at a dose of 1 mg/kg (syringe).
To an oral administration group (PO), a drug is orally administered at a dose of 10 mg/kg (oral zondec)
After administration, blood of the intravenous administration group was collected through a jugular vein 8 times at 0.08, 0.25, 0.5, 1, 2, 4, 6, and 8 hours. One collected blood amount is 400 to 500 ul.
After administration, blood of the oral administration group was collected through a jugular vein 6 times at 0.25, 0.5, 1, 4, 6 and 8 hours. One collected blood amount is 400 to 500 ul.
Supernatant plasma is collected by a centrifuge.
The supernatant plasma was injected into a LC-MS/MS system and the drug is analyzed.

[11] = system: NIS mRNA; assay: Quantitative RT-PCR, NIS mRNA in CAL62 cells; format: cell-based
Procedure: (§2) Total RNA was separated using Trizol (Invitrogen, Carlsbad, Calif.). Total RNA (2 ug) was reverse-transcribed into cDNA with RevertAid First Strand cDNA Synthesis Kit (Thermo Scientific, Pittsburgh, Pa.). Genes were amplified with a ViiA 7 Real-Time PCR System instrument (Applied Biosystems) using the primer of each target gene and YBR Green PCR master mix (Applied Biosystems, Foster City, Calif.), using a cDNA template. The primer sequence of each target gene is as follows: ERRγ (forward, 5′-CAG ACG CCA GTG GGA GCT A-3′; reverse, 5′-TGGCGAGTCAAGTCCGTTCT-3′), NIS (forward, 5′-TCTAACCGATGCTCACCTCTTCTG-3′; reverse, 5′-AGATGATGGCACCTCCTTGAACC-3′), and acidic ribosomal protein 36B4 (forward, 5′-CCA CGC TGC TGA ACA TGC T-3′; reverse, 5′-TCGAACACCTGCTGGATGAC-3′). Each target gene was normalized using a 36B4 gene.

[12] = system: CAL-62 anaplastic thyroid cancer cell line; format: cell-based; settings: for each concentration and each time
[13] = biological target: CYP2C9 (Homo sapiens (Human), UniProt P11712); assay: Cytochrome P450 activity inhibition, CYP2C9; format: in vitro ADME; settings: 10 μM, human liver microsomes, Diclofenac substrate
Chain of CYP2C9 (P11712 whole entry): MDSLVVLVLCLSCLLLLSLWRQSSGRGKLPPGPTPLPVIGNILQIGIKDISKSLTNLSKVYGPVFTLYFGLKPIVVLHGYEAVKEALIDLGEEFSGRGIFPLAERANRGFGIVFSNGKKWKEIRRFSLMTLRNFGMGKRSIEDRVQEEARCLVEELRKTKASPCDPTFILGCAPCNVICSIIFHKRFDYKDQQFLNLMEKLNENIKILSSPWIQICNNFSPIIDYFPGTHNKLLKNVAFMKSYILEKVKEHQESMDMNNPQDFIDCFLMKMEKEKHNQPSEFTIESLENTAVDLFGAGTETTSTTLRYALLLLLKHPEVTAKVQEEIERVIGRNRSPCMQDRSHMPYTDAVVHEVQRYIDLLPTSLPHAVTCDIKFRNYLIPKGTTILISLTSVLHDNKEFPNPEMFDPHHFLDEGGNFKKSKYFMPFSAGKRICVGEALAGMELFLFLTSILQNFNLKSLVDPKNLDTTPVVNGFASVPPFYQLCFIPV
Excerpt: as §1

[14] = system: CAL-62/effluc tumor; assay: Tumor growth by bioluminescent imaging in CAL-62/effluc mouse tumor model; format: in vivo, Nude mice (Balb/c nu/nu); settings: 100 mpk, 200 mpk orally daily for 6 days
Procedure: (§4) Nude mice (Balb/c nu/nu, female, 6 weeks old) were used, and all animals were normally raised in DMRC center animal laboratory of Kyungbuk National University Hospital in Chilgok. 5×10^6 CAL-62/effluc cells were subcutaneously injected into the left femoral region of the nude mouse to form a tumor. The tumor was extracted, divided into small pieces (20 mg or more), and then intradermally injected into the nude mouse to form a tumor.
In order to observe a difference in tumor growth between before administration and after administration, optical imaging (bioluminescent imaging) was performed.
For obtaining an optical image, D-luciferin (3 mg/mouse) was intraperitoneally injected to the mouse. After about 10 minutes of injection, the mouse was anesthetized by inhalation (I-2% isoflurane gas), and then positioned on a IVIS Lumina III (PerkinElmer) imaging bed. The time for obtaining the image was automatically set, and then an optical image was obtained.

[15] = biological target: CYP1A2 (Homo sapiens (Human), UniProt P05177); assay: Cytochrome P450 activity inhibition, CYP1A2; format: in vitro ADME; settings: 10 μM, human liver microsomes, Phenacetin substrate
Chain of CYP1A2 (P05177 whole entry): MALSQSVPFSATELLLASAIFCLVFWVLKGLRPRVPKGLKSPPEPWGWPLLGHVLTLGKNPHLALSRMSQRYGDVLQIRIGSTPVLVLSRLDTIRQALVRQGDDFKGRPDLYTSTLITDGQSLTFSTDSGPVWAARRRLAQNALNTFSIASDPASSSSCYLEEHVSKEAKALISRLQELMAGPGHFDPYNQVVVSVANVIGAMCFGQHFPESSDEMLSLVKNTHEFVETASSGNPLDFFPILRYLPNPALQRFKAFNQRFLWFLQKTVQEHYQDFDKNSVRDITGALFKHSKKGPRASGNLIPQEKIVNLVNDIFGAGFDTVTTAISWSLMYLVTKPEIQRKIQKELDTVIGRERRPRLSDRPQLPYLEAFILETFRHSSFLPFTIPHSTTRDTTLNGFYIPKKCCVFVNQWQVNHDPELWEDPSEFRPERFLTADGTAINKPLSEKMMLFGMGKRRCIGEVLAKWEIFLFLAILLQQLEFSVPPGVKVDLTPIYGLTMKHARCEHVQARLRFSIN
Excerpt: as §1

[16] = system: ERRγ mRNA; assay: Quantitative RT-PCR, ERRγ mRNA in CAL62 cells; format: cell-based
Procedure: as §2

[17] = system: NIS protein; assay: Western blot, total and membrane-localized NIS protein in CAL62 cells; format: cell-based
[18] = biological target: CYP3A4 (Homo sapiens (Human), UniProt P08684); assay: Cytochrome P450 activity inhibition, CYP3A4; format: in vitro ADME; settings: 10 μM, human liver microsomes, Midazolam substrate
Chain of CYP3A4 (P08684 whole entry): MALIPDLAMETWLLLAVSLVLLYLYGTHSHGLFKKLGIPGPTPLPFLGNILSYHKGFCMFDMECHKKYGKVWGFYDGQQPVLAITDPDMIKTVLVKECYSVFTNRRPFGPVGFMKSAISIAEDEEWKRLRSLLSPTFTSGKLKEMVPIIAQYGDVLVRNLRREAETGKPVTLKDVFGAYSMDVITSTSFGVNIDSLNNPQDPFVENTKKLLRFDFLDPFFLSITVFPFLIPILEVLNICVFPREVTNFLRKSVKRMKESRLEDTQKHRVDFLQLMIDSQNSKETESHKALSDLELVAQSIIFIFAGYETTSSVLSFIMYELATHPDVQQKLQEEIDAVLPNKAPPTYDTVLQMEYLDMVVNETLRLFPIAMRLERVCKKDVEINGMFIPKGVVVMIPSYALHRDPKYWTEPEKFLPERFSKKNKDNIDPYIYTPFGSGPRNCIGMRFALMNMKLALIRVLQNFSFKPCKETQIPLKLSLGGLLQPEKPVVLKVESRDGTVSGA
Excerpt: as §1

[19] = biological target: CYP2C19 (Homo sapiens (Human), UniProt P33261); assay: Cytochrome P450 activity inhibition, CYP2C19; format: in vitro ADME; settings: 10 μM, human liver microsomes, S-mephenytoin substrate
Chain of CYP2C19 (P33261 whole entry): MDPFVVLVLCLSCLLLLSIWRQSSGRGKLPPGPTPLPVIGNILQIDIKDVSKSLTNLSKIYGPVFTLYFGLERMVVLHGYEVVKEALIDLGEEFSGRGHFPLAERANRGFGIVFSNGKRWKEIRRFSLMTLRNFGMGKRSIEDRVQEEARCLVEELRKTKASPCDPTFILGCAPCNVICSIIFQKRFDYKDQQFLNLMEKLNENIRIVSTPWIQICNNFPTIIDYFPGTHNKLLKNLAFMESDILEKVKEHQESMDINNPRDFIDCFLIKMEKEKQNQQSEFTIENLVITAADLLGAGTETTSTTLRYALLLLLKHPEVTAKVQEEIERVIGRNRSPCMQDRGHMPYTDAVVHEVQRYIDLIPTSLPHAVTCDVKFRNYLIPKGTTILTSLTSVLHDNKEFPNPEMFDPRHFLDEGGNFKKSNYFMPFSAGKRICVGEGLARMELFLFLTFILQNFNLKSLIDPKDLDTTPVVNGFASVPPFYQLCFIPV
Excerpt: as §1

[20] = system: ERRγ protein; assay: Western blot, ERRγ protein in CAL62 cells; format: cell-based; settings: 24 hours
[21] = system: CAL-62/effluc tumor; assay: 125I bio-distribution study in CAL-62/effluc mouse tumor model; format: in vivo, Nude mice (Balb/c nu/nu)
Procedure: as §4
After 4 hours of administration, all organs including a parent tumor were extracted, and each organ was weighed. Thereafter, each organ was transferred to a 5 mL test tube, and radioactivity in the organ was measured using a gamma counter.

[22] = 1 μM, 30 minutes, 37° C., NADPH
[23] = 1 μM, 30 minutes, 37° C., NADPH; remark: listed apart in the source
Procedure: 2) Microsomal Stability Evaluation
(§5) Four liver microsomes (Human, Dog, Rat, Mouse 0.5 mg/ml) with a 0.1 M phosphate buffer solution (pH 7.4), and the arylethene derivative of the present invention were added to a concentration of 1 μM, culturing was performed at 37° C. for 5 minutes in advance, a NADPH regeneration system solution was added thereto, and culturing was performed at 37° C. for 30 minutes. Thereafter, in order to complete the reaction, an acetonitrile solution containing an internal standard material (chlorpropamide) was added thereto, centrifugation (14,000 rpm, 4° C.) was performed for 5 minutes, and a supernatant was injected into a LC-MS/MS system to analyze the substrate drug, thereby evaluating metabolism stability to the arylethene derivative of the present invention.

[24] = 1 μM, 30 minutes, 37° C., NADPH; remark: listed apart in the source
Procedure: 2) Microsomal Stability Evaluation
as §5

[25] = 1 μM, 30 minutes, 37° C., NADPH; remark: listed apart in the source
Procedure: 2) Microsomal Stability Evaluation
as §5

[26] = activity relative to reference compound GSK5182, 10 μM

OCCC/C(=C(\c1ccc(O)cc1)c1ccc(OCCN2CCCCC2)cc1)c1ccccc1 [Compound 6d]
Functional Assay, Cpds/Ref 5182 [1]: 1.69 | Functional Assay at 10 μM (% of control), Cpds ([1]; 10 μM, 24 hours, AD293): 5.2 % of control | IC50 [2]: 0.262 µM | IC50 [3]: 0.093 µM | IC50 [4]: > 10 µM | IC50 [5]: > 30 µM

OCCC/C(=C(\c1ccc(O)cc1)c1ccc(OCCN2CC2)cc1)c1ccccc1 [Compound 6f]
Functional Assay at 10 μM (% of control), Cpds ([1]; 10 μM, 24 hours, AD293): 6.75 % of control | Functional Assay, Cpds/Ref 5182 [1, 26]: 2.19 | IC50 [2]: 0.296 µM | IC50 [3]: 0.059 µM | IC50 [4]: > 10 µM | IC50 [5]: > 30 µM

CN1CCC[C@@H]1COc1ccc(/C(=C(/CCCO)c2ccccc2)c2ccc(O)cc2)cc1 [Compound 6i]
Functional Assay at 10 μM (% of control), Cpds [1]: 5 % of control | Functional Assay, Cpds/Ref 5182 [1]: 1.62 | IC50 [5]: > 30 µM

CC(C)N1CCN(c2ccc(C(=C(CCCO)c3ccccc3)c3ccc(O)cc3)cc2)CC1 [Compound 18a]
Permeability Pampa ([6]; 5 hours): 0.46 10^−6 cm/s | CYP inhibition (% of control) 2D6 [7]: 63.5 % of control | IC50 [8]: 18.7 µM | Functional Assay at 10 μM (% of control), Cpds ([1]; 10 μM, 24 hours, AD293): 4.83 % of control | Functional Assay, Cpds/Ref 5182 [1, 26]: 1.18 | cytotoxic effect, alone (clone formation assay) [9]: minimal cytotoxic effect | AUCINF ([10]; IV, 1 mg/kg): 0.49 μMh | AUCall ([10]; IV, 1 mg/kg): 0.42 μMh | Vss ([10]; IV, 1 mg/kg): 25.2 L/kg | t1/2 ([10]; IV, 1 mg/kg): 3.8 h | AUCINF ([10]; PO, 10 mg/kg): 1.29 μMh | AUCall ([10]; PO, 10 mg/kg): 0.81 μMh | BA ([10]; PO, 10 mg/kg): 21.4% | Tmax ([10]; PO, 10 mg/kg): 1.1 h | Cmax ([10]; PO, 10 mg/kg, read-out: Cmax): 210 nM | NIS mRNA expression, increase compared with vehicle-treated group [11]: about 2 times | radioactive iodine uptake in CAL62 cells [12]: significant increase | CYP inhibition (% of control) 2C9 [13]: 86.1 % of control | tumor growth (optical imaging) [14]: significant tumor growth inhibitory efficiency | CYP inhibition (% of control) 1A2 [15]: 88 % of control | ERRγ mRNA expression, decrease compared with vehicle treated group [16]: about 16 times | IC50 [4]: > 10 µM | increase in membrane fully glycosylated NIS protein ([17]; biotinylated membrane protein): 8.1 times | increase in membrane partially glycosylated NIS protein ([17]; biotinylated membrane protein): 6.4 times | total NIS protein expression, change compared with vehicle treated group ([17]; text says significantly increased, then 'decreased by'): about 1.9 times | CYP inhibition (% of control) 3A4 [18]: 66.4 % of control | CYP inhibition (% of control) 2C19 [19]: 81.2 % of control | ERRγ protein expression, decrease compared with vehicle treated group [20]: about 2.8 times | radioactive uptake in CAL62 tumor, increase compared with vehicle group ([21]; 100 mpk orally daily for 6 days): 4.4 times | radioactive uptake in CAL62 tumor, increase compared with vehicle group ([21]; 200 mpk orally daily for 6 days): 16.2 times

CN1CCN(c2ccc(/C(=C(/CCCO)c3ccccc3)c3ccc(N)cc3)cc2)CC1 [Compound 26a, (Z)-5-(4-aminophenyl)-5-(4-(4-methylpiperazin-1-yl)phenyl)-4-phenylpent-4-en-1-ol]
MS(Microsomal Stability) (%) rat [22]: 46.7% | Papp at 5 h [6]: 1.58 ×10⁻⁶ cm/s | MS(Microsomal Stability) (%) human [23]: 72.3% | Functional Assay at 10 μM (% of control), Cpds ([1]; 10 μM, 24 hours, AD293): 2.66 % of control | Functional Assay, Cpds/Ref 5182 [1, 26]: 0.84 | CYP inhibition (% of control) 1A2 [15]: >100 % of control | CYP inhibition (% of control) 2C19 [19]: 89 % of control | IC50 [5]: > 30 µM

Nc1ccc(/C(=C(\CCCO)c2ccccc2)c2ccc(C3CCN(C4CC4)CC3)cc2)cc1 [Compound 26d]
MS(Microsomal Stability) (%) rat [22]: 72.2% | Papp at 5 h [6]: 1.04 ×10⁻⁶ cm/s | CYP inhibition (% of control) 2D6 [7]: 86.1 % of control | MS(Microsomal Stability) (%) human [23]: 77.5% | MS(Microsomal Stability) (%) mouse [24]: 38.3% | CYP inhibition (% of control) 2C9 [13]: 96.6 % of control | MS(Microsomal Stability) (%) dog [25]: 51.5% | CYP inhibition (% of control) 1A2 [15]: >100 % of control | CYP inhibition (% of control) 3A4 [18]: 57.3 % of control | CYP inhibition (% of control) 2C19 [19]: >100 % of control | IC50 [5]: 26 µM
